Consider one molecule from patent publication US11434222B2, “MAGL inhibitors” (H. LUNDBECK A/S, priority 2020, dated 2022).

Like-named read-outs stand apart in the source and are kept apart here.

The nature of data set [1]: Thermodynamic solubility in PBS. Type of data set: physicochemical. The conditions noted are these: aqueous buffer, thermodynamic from solid; PBS pH 7.4; 24 hours at RT. The procedure: The thermodynamic solubility of test article was determined in PBS at pH 7.4 in duplicate. The test article (1.5 mg) in PBS was incubated for 24 hours at RT with shaking at 1100 rpm. Sample was then filtered using a vacuum manifold, diluted, and analyzed by LC-MS/MS. Chromatographic conditions: Phenomenex Synergi 4μ Hydro-PR 80A column (2.0×30 mm) coupled with pre-guard column; mobile phase=0.1% formic acid in acetonitrile and 0.1% formic acid in water; flowrate=0.65 mL/min; column temperature=40 degrees C.; injection volume: 10 μL.
Mobile phase: 0.1% formic acid in acetonitrile (A) and 0.1% formic acid in water (B)
Mass conditions: Turbo spray ion source; ESI ionization model; MRM scan type; Collison gas=6 L/min; Curtain gas=30 L/min; Nebulize gas=50 L/min; Auxiliary gas=50 L/min; Temperature=500 degrees C.; Ion spray voltage=+5500 v (positive MRM).
The filtered solution was analyzed and quantified against a standard of known concentration in DMSO using UPLC coupled with mass spectral peak identification and quantitation. Solubility values of the test articles were calculated using Microsoft Excel as follows (DF is the dilution factor): […]

Another data set has as its target T1, MAGL (Mus musculus, UniProt O35678).
T1 construct: brain proteomes were prepared and analyzed according to previously established methods; from tissue; host or cells: brain of wild-type C57Bl/6J mice
T1 sequence (O35678 1-303): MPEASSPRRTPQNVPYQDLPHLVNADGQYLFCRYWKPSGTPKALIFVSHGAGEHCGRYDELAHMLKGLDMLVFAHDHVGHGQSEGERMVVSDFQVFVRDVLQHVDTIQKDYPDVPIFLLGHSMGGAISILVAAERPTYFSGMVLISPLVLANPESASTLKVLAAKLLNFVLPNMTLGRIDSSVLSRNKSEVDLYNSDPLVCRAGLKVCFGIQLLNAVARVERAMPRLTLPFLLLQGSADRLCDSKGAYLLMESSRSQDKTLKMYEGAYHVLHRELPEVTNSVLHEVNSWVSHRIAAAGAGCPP
Kind of data set: In vivo MAGL inhibition in mouse brain proteomes after oral gavage. To be noted: 5 mg/kg oral gavage, 4 h after administration, read-out: MAGL % inh. 5 mg/kg (mouse). The procedure: Inhibitors were administered to wild-type C57B1/6J by oral gavage in a vehicle of polyethylene glycol. Each animal was sacrificed 4 h following administration and brain proteomes were prepared and analyzed according to previously established methods (See Niphakis, M. J., et al. (2011) ACS Chem. Neurosci. and Long, J. Z., et al. Nat. Chem. Biol. 5:37-44).

Data set [2] can be described thus: Kinetic solubility in PBS. To be noted: aqueous buffer, kinetic from dmso stock. Type of data set: physicochemical. Summed up:
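Solubility measured in PBS at pH 2.0 and pH 7.4, in duplicate, starting from 10 mM DMSO stock; shaken 2 h at RT at 1,100 RPM. Filtrate diluted and quantified by LC-MS/MS (positive MRM) against a DMSO standard of known concentration.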

Data set [3] in a line: Free fraction in rat plasma and brain homogenate by equilibrium dialysis. Type of data set: in vitro ADME. The procedure:
(§1) Brain disposition was evaluated in male Sprague-Dawley rats (n=3, standard body weight). Briefly, test compound was formulated as a simple suspension, in 0.5% HPMC in water, then administered by oral gavage (5 mg/kg, 5 mL/kg). Four hours post dosing, rats were sacrificed, and terminal blood and brain samples were taken. Blood was obtained via cardiac puncture (0.1 mL) and was added into 0.4 mL CH3CN for precipitation immediately. The samples were stored at −75+/−15° C. prior to analysis. Brain tissue samples were collected after animals were fully exsanguinated, and the tissues were washed with cold saline quickly. After sectioning, brain sections were immediately frozen in liquid nitrogen and stored at −75+/−15° C. prior to analysis. Blood and brain samples were analyzed by LC/MS/MS using an optimized analytical method. Concentrations of test compound in blood and brain were quantified against matrix matched calibration standards. The total blood, plasma, and brain concentration data are presented in Table 2 alongside the calculated brain Kp (total brain concentration:total plasma concentration ratio), the calculated brain kp,uu (unbound brain concentration:unbound plasma concentration ratio), the free fractions in rat plasma and brain, and the in vitro rat blood to plasma distribution profile. The total plasma concentration data were calculated from the total blood concentration data using rat blood to plasma ratio which was measured in vitro (1 μM test compound). For kp,uu determination, the free fraction in rat plasma and brain homogenate were measured in vitro by standard equilibrium dialysis (1 μM test compound and 6 h equilibration against buffer pH 7.4; for rat plasma analysis, 100 mM stock solution of diisopropyl fluorophosphate was added to the pre-warmed rat plasma prior to adding test article).
(Equilibrium dialysis compares concentrations on both sides of a semipermeable membrane.)

The nature of data set [4]: In vitro human hepatocyte stability. Type of data set: in vitro ADME. To be noted: cryopreserved human hepatocytes (pooled donor), human hepatocytes 0.5×10^6 cells/mL, read-out: Scaled-up unbound CLint. The procedure:
The metabolic stability of test articles (1 μM) in commercially sourced, pooled donor, cryopreserved human hepatocytes (0.5×10^6 cells/mL) was determined in duplicate. The CLint reactions (250 μL) were initiated by addition of test compound. Aliquots (25 μL) were taken at 0, 15, 30, 45, 60, 90, 120 and 240 minutes and then protein crashed with ice-cold acetonitrile containing internal standard then centrifuged (3220 g for 25 minutes). Supernatant was used for LC-MS/MS analysis. The in vitro half-life (in vitro t1/2) was determined from the slope value: in vitro t1/2=−0.693/k. Conversion of the in vitro t1/2 (in min) into the scale-up unbound intrinsic clearance (Scaled-up unbound CLint, in mL/min/kg) was done using the following equation (mean of duplicate determinations), with data shown in Table 5: Scaled-up unbound CLint=kV/N×scaling factor. V=incubation volume (0.25 mL); N=number of hepatocytes per well ([…]). Scaling factors for in vivo intrinsic clearance prediction are listed below: […]

Data set [5] can be described thus: Rat Kp, brain disposition after oral gavage. Format: in vivo. The procedure: as §1
The nature of data set [6]: In vitro rat blood to plasma ratio. Format: in vitro ADME. To be noted: 1 μM test compound. The procedure: as §1
[7] abbreviates: 5 mg/kg oral gavage, 4 h post dosing, mean n = 3.

For orientation: solubility (thermodynamic) means solubility found after equilibrating the solid with the medium. By solubility (kinetic) is commonly meant the concentration staying in solution when a stock, usually in DMSO, is diluted into the medium. The term CLint scaled denotes a measure of how fast metabolising enzymes remove a compound, apart from limits set by blood flow. What is called Kp is tissue or fluid exposure divided by exposure in the circulation. Turning to `O=C(Nc1cccnc1)[C@H]1CC12CCN(C(=O)OC(C(F)(F)F)C(F)(F)F)CC2` (single isomer, unassigned) [Example 2], in data set [1], the solubility (thermodynamic) at 24 h worked out at 91.8 µg/mL. Also, the inhibition at 5 mg/kg on MAGL came out at 100%. Moreover, the solubility (kinetic) at 2 h is 30.3 µM in data set [2] (PBS pH 2.0, RT, read-out: pH 2 Solubility (kinetic)) and 189 µM in data set [2] (PBS pH 7.4, RT, read-out: pH 7.4 Solubility (kinetic)). Besides, the fraction unbound at 6 h, 1 μM in data set [3] (rat brain homogenate, buffer pH 7.4, read-out: Rat brain free fraction) worked out at 0.024; in data set [3] (rat plasma, buffer pH 7.4, read-out: Rat plasma free fraction), 0.078. In addition, the CLint scaled at 1 μM in data set [4] stood at 34.8 mL/min/kg. For the same molecule, the Total plasma concentration in data set [5] (5 mg/kg oral gavage, 4 h, calculated from total blood concentration using blood to plasma ratio) is 0.066 µM. This molecule also returned a Total blood concentration in data set [5] (setting [7]) of 0.049 µM. In data set [5] (setting [7]), the Total brain concentration was found to be 0.199 µM. Also, the Kp at 4 h in data set [5] (male, Sprague-Dawley, po, total brain concentration:total plasma concentration ratio, 5 mg/kg p.o., 4 h) worked out at 3.01. Moreover, in data set [5] (male, Sprague-Dawley, po, unbound brain concentration:unbound plasma concentration ratio, 5 mg/kg p.o., 4 h), the Kp uu at 4 h turned out to be 0.925. For the same molecule, in data set [6], the blood plasma ratio at 1 μM was found to be 0.833.
